Test results published in ChEMBL document CHEMBL3779821, “On the enthalpic preference of fragment binding” (Medchemcomm, 2016).

Target: Macrophage metalloelastase (Homo sapiens, UniProt P39900)
Assay: Binding affinity to MMP12 (unknown origin)

Sequence of Macrophage metalloelastase (P39900 whole entry): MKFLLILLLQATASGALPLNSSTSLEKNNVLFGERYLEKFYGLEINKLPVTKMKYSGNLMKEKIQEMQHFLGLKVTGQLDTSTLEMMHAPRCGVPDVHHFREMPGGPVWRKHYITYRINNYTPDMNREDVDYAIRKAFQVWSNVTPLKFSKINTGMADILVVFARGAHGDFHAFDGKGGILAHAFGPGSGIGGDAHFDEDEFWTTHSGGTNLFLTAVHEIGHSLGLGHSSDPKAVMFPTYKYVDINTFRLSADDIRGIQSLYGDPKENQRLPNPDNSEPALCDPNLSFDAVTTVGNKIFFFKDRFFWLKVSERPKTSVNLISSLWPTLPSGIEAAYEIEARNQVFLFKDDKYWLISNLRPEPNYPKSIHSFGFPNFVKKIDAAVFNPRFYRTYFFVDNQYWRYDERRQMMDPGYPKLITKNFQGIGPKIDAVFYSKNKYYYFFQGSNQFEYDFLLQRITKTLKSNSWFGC

With O=C(CNS(=O)(=O)c1ccccc1)NO the Kd was 6.11e-05 mM.
CC(=O)NO [ACETOHYDROXAMIC ACID] showed a Kd of 6.18 mM.
